Test results published in patent publication US9175283B2, “Use polysaccharides for promotion of enzymatic activity” (Genzyme Corporation, priority 2006, dated 2015).

System: sialidase, β-galactosidase, and β-hexosaminidase
Assay: Promotion of Target Enzyme activity: oligosaccharide modification of column-bound GCR substrate, FACE assay
Type: biochemical
Details: pH 5.7; for % Modification (FACE Assay): additive at 10%, sialidase 210, β-galactosidase 33, β-hexosaminidase 2500 U/L sv, approx. 24 hours, room temperature; for Promotion of enzymatic activity of the Target Enzymes versus no additive (in words): additive concentrations of Table 9
Description: The FACE assay is a preferred method of monitoring the enzymatic activity of the oligosaccharide/polysaccharide enzymes (such as the Target Enzymes in certain Examples herein) by determining the extent of modification of a substrate (including, but not limited to, a protein, glycoprotein or oligosaccharide) of a Target Enzyme(s). Using a FACE assay, a higher FACE number is indicative of a greater degree of modification and a greater degree of Target Enzyme(s) activity. The FACE assays are known in the art.
In the Examples herein, when the Target Enzymes were sialidase, β-galactosidase, and β-hexosaminidase, a FACE assay was used to determine the percentage of modified oligosaccharide species in the GCR substrate. Specifically, GCR was treated with N-glycanase (approximately 8 U of N-glycanase per 40 μg GCR) to release intact N-linked oligosaccharide chains. The released oligosaccharides were then labeled with the fluorophore: ANTS (8-aminonapthalene-1,3,6-trisulfonic acid and separated on oligosaccharide profiling gel (Glyko®/Prozyme®, San Leandro, Calif.) as per the manufacturers instructions. A dextran reference ladder standard (Glyko®)/Prozyme®, San Leandro, Calif.) was also run on the gel along with reference oligosaccharides, GlcNAc2(+Fuc)Man3 and GlcNAc2(-Fuc)Man3, Glyko®/Prozyme®, San Leandro, Calif.). Bands on the gel were then quantified by scanning the gel for fluorescence using a SE2000 imager system with fluorescence imaging software (Glyko®/Prozyme®, San Leandro, Calif.).
The ratio (%) of the fluorescent intensity of the bands representing two core structures, GlcNAc2(Fuc)Man3 and GlcNAc2Man3 (core structures), to the total intensity of bands with mobility ≦GlcNac2Man3 in a given lane provided the percentage of modified GCR. Since GCR acts as a substrate for the three Target Enzymes, sialidase, β-galactosidase, and β-hexosaminidase, the FACE results correlate to the activity of the Target Enzymes against GCR. For GCR, the FACE values can range from about 0 to about 100%, about 3% to about 90% and about 5% to about 85%.
HES was prepared as a 20% (w/v) stock solution by dissolving solid HES into buffer of the appropriate pH. For this Example, 100 mM sodium citrate, 5 mM calcium chloride, pH 5.7 buffer was used. The 20% […] stock solution was used to make a final concentration of 5% w/L sv HES in the Target Enzyme cocktails. […]
Target Enzyme cocktails containing three Target Enzymes were made by combining sialidase (210 U/L sv), β-galactosidase (33 U/L sv), β-hexosaminidase (2500 U/L sv), and either Hmxl (14 mL/L sv) or HES (5% w/L sv). […] The enzymatic activity of GCR is measured using standard assays (see, e.g., U.S. Pat. No. 6,451,600). […]

OCC(O)CO [Glycerol, glycerol]
% Modification (FACE Assay): 34.2%
Promotion of enzymatic activity of the Target Enzymes versus no additive (in words): showed a diminution of Target Enzyme promotion

CC(O)CO (stereo not shown) [Propylene glycol, propylene glycol]
% Modification (FACE Assay): 51.1%
Promotion of enzymatic activity of the Target Enzymes versus no additive (in words): did not show Target Enzyme promotion
